From patent US7034055B1, “2-aminoindane analogs” (Prescient Neuropharma Inc., priority 1999, dated 2006)
Like-named read-outs stand apart in the source and are kept apart here.

What was measured:
[1] = system: Group I metabotropic glutamate receptors (mGluRs); assay: Phosphatidylinositol assay (ex vivo, inositol phosphate accumulation in neonatal rat tissue slices); type: cell-based, Sprague Dawley rat; settings: antagonist, versus ACPD, 45 minutes
Procedure: Briefly, cross-chopped slices are prepared from neonatal Sprague Dawley rat tissue (age: p7-p14). The slices are pre-labelled with [^3H] myo-inositol. Following pre-labelling, the slices are incubated with the test drugs and standard (known Group I agonists i.e. ACPD) for a period of 45 minutes. The incubation is terminated by the addition of chloroform/methanol/HCl (100:200:2). The resulting mixture is separated into two phases by the addition of chloroform and distilled water. The aqueous fraction is applied to ion exchange columns, and inositol phosphates are eluted using 800 mM Ammonium Formate/100 mM Formic Acid. The eluent is then analyzed using liquid scintillation counting. The amount of inositol phosphate accumulation is expressed as a percentage of that induced by ACPD.
Group I metabotropic glutamate receptors (mGluRs) are positively coupled on inositol phosphate metabolism. Agonists at these receptors lead to an increase in intracellular free inositol phosphates, while antagonists inhibit the increase in intracellular free inositol phosphate induced by standard agonists (i.e. ACPD).
Cross-chopped slices were prepared from neonatal Sprague Dawley rat tissue (age: p7-p14). […] The eluent was then analyzed using liquid scintillation counting. The amount of inositol phosphate accumulation was expressed as a percentage of that induced by ACPD. […]

[2] = system: Group II/III metabotropic glutamate receptors (mGluRs); assay: Cyclic AMP assay (ex vivo, forskolin-induced cAMP accumulation in rat cortical slices); type: cell-based, Sprague Dawley rat
Procedure: The assay of cyclic AMP formation can be performed as described previously (Tovey et al., Clinica Chimica Acta, 56, 221-234, 1974). The assay can be modelled on the cyclic AMP assay kit available from Amersham, which in turn, is based on the assay created by Tovey et al. Briefly, samples are prepared from Sprague Dawley rat (225-250 g) cortical slices. Slices are incubated with the drug, and then challenged with forskolin to induce cyclic AMP release. Following termination of the reaction by boiling, the slices are homogenized and centrifuged. Samples of supernatant are then incubated for 2-3 hours with a known quantity of [^3H]cAMP and a binding protein. […] The resulting supernatant (containing free cyclic AMP) is then analyzed by liquid scintillation counting. The amount of unbound cyclic AMP can be calculated from a standard curve previously determined with various samples of free cyclic AMP. […]
The assay has been modeled on the cyclic AMP assay kit available from Amersham. […] Samples of supernatant were then incubated for 2-3 hours with a known quantity of [^3H]cAMP and a binding protein. […] The resulting supernatant (containing free cyclic AMP) was then analyzed by liquid scintillation counting. The amount of unbound cyclic AMP was calculated from a standard curve previously determined with various samples of free cyclic AMP. […]

EC50 [1]	EC50 ([2]; antagonist, versus glutamate, read-out: Group II/III Antagonist EC50)	EC50 ([2]; agonist, read-out: Group II/III Agonist EC50)	SMILES
2.2 µM	0.0012 µM		N[C@@]1(C(=O)O)Cc2ccccc2[C@H]1CC(=O)O (relative stereo) [Cis-2 amino-2-carboxyindaneacetic acid (compound 8)]
1600 µM		0.11 µM	N[C@]1(C(=O)O)Cc2ccccc2[C@H]1CC(=O)O (relative stereo) [Trans-2 amino-2-carboxyindaneacetic acid (compound 8)]
